# Experimental data reported in patent publication US9365541B2, “Compounds for use in the treatment of parasitic diseases” (IRBM—SCIENCE PARK S.P.A., priority 2012, dated 2016).
# How the values were obtained:
# human HDAC1 = biological target: T1, human HDAC1 (Homo sapiens, UniProt Q13547); test: Homo sapiens HDAC1 inhibition assay (Fluor-de-Lys, enzymatic); format: biochemical; conditions: human HDAC enzymatic assay; read-out: hHDAC IC50
# T1 construct: made in house; host or cells: HeLa (ATCC CCL-2), mammalian cells
# T1 sequence (Q13547 whole entry): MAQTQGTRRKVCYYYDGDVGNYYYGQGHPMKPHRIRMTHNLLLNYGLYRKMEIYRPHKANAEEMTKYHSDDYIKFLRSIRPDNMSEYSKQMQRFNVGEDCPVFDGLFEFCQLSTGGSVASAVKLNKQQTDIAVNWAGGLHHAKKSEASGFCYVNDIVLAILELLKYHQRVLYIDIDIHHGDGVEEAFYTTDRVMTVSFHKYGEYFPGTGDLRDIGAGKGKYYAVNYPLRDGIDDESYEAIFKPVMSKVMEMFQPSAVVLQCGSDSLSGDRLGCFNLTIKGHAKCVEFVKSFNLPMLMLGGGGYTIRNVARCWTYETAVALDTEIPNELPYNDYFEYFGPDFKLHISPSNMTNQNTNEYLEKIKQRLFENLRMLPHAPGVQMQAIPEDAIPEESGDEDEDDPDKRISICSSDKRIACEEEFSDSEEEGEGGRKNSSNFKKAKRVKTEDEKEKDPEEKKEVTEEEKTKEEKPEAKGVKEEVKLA
# Description: Biology Homo sapiens HDAC1 Inhibition Assay Overview:
# The aim of the assay is to evaluate the inhibition of the deacetylase activity of human HDAC1. To such goal an acetylated substrate is added to the enzyme mix; the resulting enzymatic product is converted to a fluorescent molecule by the addition the enzyme trypsine (developer solution). Fluorescence intensity is inversely proportional to the rate of inhibition of the enzyme (as indicated in the material section below).
# Reagents of the HDAC Fluorescent Activity Assay are purchased from Enzo Life Sciences (http://www.enzolifesciences.com/BML-AK500/fluor-de-lys-hdac-fluorometric-activity-assay-kit/) and feature the Fluor-de-Lys™ Substrate/Developer System.
# c) Trichostatin A (TSA) Stock
# TSA (Sigma-Aldrich, T8552) is provided as a 10 mM stock solution in 100% dimethylsulfoxide (DMSO).
# Diluted Substrate Solution
# The final concentration in the assay is 20 μM.
# Diluted Developer Solution
# 2 μM [final] TSA to this solution increases its ability to stop the reaction.
# The HDAC1 enzyme is diluted in assay buffer prior to each use from a fresh aliquot of enzyme.
# The final concentration in the assay is 1-2 nM.
# Test compounds should be prepared in 100% DMSO and transferred to the assay by a nano volume dispenser to reach the appropriate concentration and the appropriate DMSO concentration (0.25%) in the reaction.
# [1] = tested on: Plasmodium falciparum 3D7; test: P. falciparum growth inhibition assay (Pf-LDH); format: cell-based; conditions: Plasmodium falciparum, Erythrocyte; P. falciparum 3D7 infected erythrocytes, 72 h incubation, PfLDH readout
# Description: Basic culture of Plasmodium falciparum 3D7 parasites (Malaria Research and Reference Reagent Resource Center (MR4), MR4 Number: MRA-102).
# Starting with a culture with a parasitemia of about 10% (and 5% hematocrit), 0.5 ml of the culture is placed in a fresh 100 mm petri dish with 0.95 ml of fresh erythrocytes (50% hematocrit) and 8.55 ml of culture medium, giving a new starting parasitemia of 0.5%. The petri dish is then incubated at 37° C. in a humidified gas-tight plastic box flushed with a gas mixture consisting of 93% N2, 4% CO2, and 3% O2. The culture medium is changed daily. The supernatant is removed by gently tipping the dish without disturbing the settled cells and aspirating the medium with a Pasteur pipette connected to a vacuum pump. A small amount of the concentrated cells is taken to prepare a blood smear for determination of the parasitemia. Normally, the cultures are split twice a week. If the parasites are growing very slowly then fresh erythrocytes are added to the culture no later than after 7 days. The cultures are then split 1:2 if the parasitemia is lower than 0.5%. To avoid the necessity of daily medium change on weekends, a culture with a 2.5% hematocrit and 0.1-0.2% parasitemia is set up and can be left for 3 days without medium change.
# Standard medium consists of RPMI 1640, supplemented with 25 mM HEPES, 24 mM NaHCO3, 0.36 mM hypoxanthine, 100 μg/ml Neomycin, 5 g/1 Albumax® II, and washed human red blood cells (rbcs) A+.
# P. falciparum Growth Inhibition Assay (Pf-LDH)
# Compounds of the invention were assessed for in vitro antimalarial activity against a cloroquine sensitive (3D7) strain of the malaria parasite Plasmodium falciparum, using a lactate dehydrogenase (PfLDH) assay.
# EC50 Determination by Pf-LDH Assay
# 384 plates (where compounds to be tested are dispensed) with 25 μl of parasite inoculum (parasitemia: 0.25%, hematocrit: 2%) are incubated at 37° C. in an atmosphere of 4% CO2, 3% O2, 93% N2. After 72 h of incubation, plates are frozen at −70° C. overnight and thawed at room temperature for at least 4 h. To evaluate PfLDH activity, 70 μl of freshly made reaction mix (143 mM sodium L-lactate, 143 μM 3-acetyl pyridine adenine dinucleotide (APAD), 178.75 μM Nitro Blue tetrazolium chloride (NBT), 286 μg/ml diaphorase (2.83 U/ml), 0.7% Tween 20, 100 mM Tris-HCl pH 8.0) is dispensed using a Multidrop Combi dispenser. Plates are shaken to ensure mixing and absorbance at 650 nm is monitored in a plate reader after 10 min of incubation at room temperature.
# Negative controls (0% Effect) are produced by addition of DMSO to the proper wells.
# Positive controls (100% Effect) are produced by addition of 150 nM Artemisinin (Sigma-Aldrich, 361593)
# After result normalization using positive and negative controls, compound potency is determined by fitting the following equation: % inh=Ymin+(Ymax−Ymin)/(1+(X/EC50)^slope)) Where: • Ymin=minimum percentage effect • Ymax=maximum percentage effect • EC50=the concentration of the compound at which 50% effect is reached • Slope=the slope of the curve calculated at the EC50 Histone Hyperacetylation and Immunodetection of Altered Histone Modifications Assay
Structure (SMILES),IC50 (human HDAC1) [µM],EC50 [1] [µM]
"CNC(=O)CCCCC[C@H](NC(=O)c1cncs1)c1ncc(-c2ccc3[nH]nnc3c2)[nH]1 [Entry 112, (S)-N-(1-(5-(1H-benzo[d][1,2,3]triazol-5-yl)-1H-imidazol-2-yl)-7-(methylamino)-7-oxoheptyl)thiazole-5-carboxamide]",> 5,> 5
"CNC(=O)CCCCC[C@H](NC(=O)c1ccc(N2CC(=O)NC2=O)cc1)c1ncc(-c2ccc(-n3cccn3)cc2)[nH]1 [Entry 195, (S)-N-(1-(5-(4-(1H-pyrazol-1-yl)phenyl)-1H-imidazol-2-yl)-7-(methylamino)-7-oxoheptyl)-4-(2,4-dioxoimidazolidin-1-yl)benzamide]",> 5,1 to 5
CNC(=O)CCCCC[C@H](NC(=O)Cn1nnc(N2CCCC2)n1)c1ncc(-c2ccc3ccccc3c2)[nH]1 [Entry 20],< 1,1 to 5
CNC(=O)CCCCC[C@H](NC(=O)Cc1ccccc1)c1ncc(-c2ccc3ccccc3c2)[nH]1 [Entry 21],< 1,1 to 5
"COc1ccc2[nH]c(C)c(CC(=O)N[C@@H](CCCCCC(N)=O)c3nnc(-c4ccc5ccccc5c4)o3)c2c1 [Entry 174, (S)-7-(2-(5-methoxy-2-methyl-1H-indol-3-yl)acetamido)-7-(5-(naphthalen-2-yl)-1,3,4-oxadiazol-2-yl)heptanamide]",< 1,1 to 5
CNC(=O)CCCCC[C@H](NC(=O)CCc1cnn(C)c1)c1ncc(-c2cc3ccccc3nc2OC)[nH]1 [Entry 134],> 5,1 to 5
"CNC(=O)CCCCC[C@H](NC(=O)Cc1cnc2ccccn12)c1ncc(-c2ccc(-n3cccn3)cc2)[nH]1 [Entry 163, (S)-7-(5-(4-(1H-pyrazol-1-yl)phenyl)-1H-imidazol-2-yl)-7-(2-(imidazo[1,2-a]pyridin-3-yl)acetamido)-N-methylheptanamide]",1 to 5,1 to 5
"CNC(=O)CCCCC[C@H](NC(=O)c1cn2ccccc2n1)c1ncc(-c2ccc3ccccc3c2)[nH]1 [Entry 144, (S)-N-(7-(methylamino)-1-(5-(naphthalen-2-yl)-1H-imidazol-2-yl)-7-oxo-heptyl)imidazo[1,2-a]pyridine-2-carboxamide]",> 5,> 5
"CNC(=O)CCCCC[C@H](NC(=O)C1CCC1(F)F)c1ncc(-c2ccc3ccncc3c2)[nH]1 (stereo partly drawn) [Entry 145, 2,2-difluoro-N-((S)-1-(5-(isoquinolin-7-yl)-1H-imidazol-2-yl)-7-(methylamino)-7-oxo-heptyl)cyclobutane-carboxamide]",1 to 5,1 to 5
"CNC(=O)CCCCC[C@H](NC(=O)c1nc2ncccn2n1)c1ncc(-c2ccc3ccccc3c2)[nH]1 [Entry 43, (S)-N-(7-(methylamino)-1-(5-(naphthalen-2-yl)-1H-imidazol-2-yl)-7-oxoheptyl)-[1,2,4]triazolo[1,5-a]pyrimidine-2-carboxamide]",1 to 5,> 5
"CNC(=O)CCCCC[C@H](NC(=O)c1cc2cc(OC)ccc2[nH]1)c1ncc(-c2ccc3ccccc3c2)[nH]1 [Entry 73, (S)-5-methoxy-N-(7-(methylamino)-1-(5-(naphthalen-2-yl)-1H-imidazol-2-yl)-7-oxoheptyl)-1H-indole-2-carboxamide]",1 to 5,1 to 5
"CNC(=O)CCCCC[C@H](NC(=O)c1cc(-c2ccco2)n[nH]1)c1ncc(-c2ccc3ccccc3c2)[nH]1 [Entry 86, (S)-3-(furan-2-yl)-N-(7-(methylamino)-1-(5-(naphthalen-2-yl)-1H-imidazol-2-yl)-7-oxoheptyl)-1H-pyrazole-5-carboxamide]",1 to 5,1 to 5
"CNC(=O)CCCCC[C@H](NC(=O)c1cncs1)c1ncc(-c2ccc(Cl)cc2OC)[nH]1 [Entry 57, (S)-N-(1-(5-(4-chloro-2-methoxyphenyl)-1H-imidazol-2-yl)-7-(methylamino)-7-oxoheptyl)thiazole-5-carboxamide]",1 to 5,1 to 5
"CNC(=O)CCCCC[C@H](NC(=O)CC1=CSC2=NCCCN12)c1ncc(-c2cc3ccccc3nc2OC)[nH]1 [Entry 201, (S)-7-(2-(6,7-dihydro-5H-thiazolo[3,2-a]pyrimidin-3-yl)acetamido)-7-(5-(2-methoxyquinolin-3-yl)-1H-imidazol-2-yl)-N-methylheptanamide]",1 to 5,< 1
"CNC(=O)CCCCC[C@H](NC(=O)Cn1ccc(C)n1)c1ncc(-c2ccc(-c3ccn(C)n3)cc2)[nH]1 [Entry 171, (S)-N-methyl-7-(2-(3-methyl-1H-pyrazol-1-yl)acetamido)-7-(5-(4-(1-methyl-1H-pyrazol-3-yl)phenyl)-1H-imidazol-2-yl)heptanamide]",> 5,> 5
CNC(=O)CCCCC[C@H](NC(=O)c1csc(-c2cccnc2)n1)c1ncc(-c2cc3ccccc3nc2OC)[nH]1 [Entry 30],> 5,1 to 5
CNC(=O)CCCCC[C@H](NC(=O)Cn1nnc2ccccc21)c1ncc(-c2cc3ccccc3nc2OC)[nH]1 [Entry 7],< 1,1 to 5
"CCc1nc2ccccc2n1CCC(=O)N[C@@H](CCCCCC(=O)NC)c1ncc(-c2cc3ccccc3nc2OC)[nH]1 [Entry 8, (S)-7-(3-(2-ethyl-1H-benzo[d]imidazol-1-yl)propanamido)-7-(5-(2-methoxyquinolin-3-yl)-1H-imidazol-2-yl)-N-methylheptanamide]",< 1,1 to 5
"CNC(=O)CCCCC[C@H](NC(=O)c1cnn(C(C)C)c1)c1ncc(-c2ccc(-c3ccn(C)n3)cc2)o1 [Entry 223, (S)-1-isopropyl-N-(1-(5-(4-(1-methyl-1H-pyrazol-3-yl)phenyl)oxazol-2-yl)-7-(methylamino)-7-oxoheptyl)-1H-pyrazole-4-carboxamide]",> 5,1 to 5
CNC(=O)CCCCC[C@H](NC(=O)Cc1n[nH]c(=O)[nH]1)c1ncc(-c2ccc3ccccc3c2)[nH]1 [Entry 115],1 to 5,1 to 5
"CNC(=O)CCCCC[C@H](NC(=O)[C@H]1CCN(C)C1)c1ncc(-c2ccc3ccccc3c2)[nH]1 [Entry 149, (S)-1-methyl-N-((S)-7-(methylamino)-1-(5-(naphthalen-2-yl)-1H-imidazol-2-yl)-7-oxo-heptyl)pyrrolidine-3-carboxamide]",1 to 5,
"CNC(=O)CCCCC[C@H](NC(=O)c1cncs1)c1ncc(-c2cc3ccccc3nc2OC)[nH]1 [Entry 178, (S)-N-(1-(5-(2-methoxyquinolin-3-yl)-1H-imidazol-2-yl)-7-(methylamino)-7-oxoheptyl)thiazole-5-carboxamide]",,< 1
"COc1ccc2[nH]c(C)c(CC(=O)N[C@@H](CCCCCC(N)=O)c3ncc(-c4ccc5ccccc5c4)[nH]3)c2c1 [Entry 96, (S)-7-(2-(5-methoxy-2-methyl-1H-indol-3-yl)acetamido)-7-(5-(naphthalen-2-yl)-1H-imidazol-2-yl)heptanamide]",,< 1
